The results in this text go back to US20070254324A1, “Method for determination of platelet function under flow conditions” (DADE BEHRING MARBURG GmbH, priority 2006, published 2007).

Common to all, as to assay type: cell-based, human
In assay [1] the test system is platelet function in whole blood. The experiment in a line: Closure time under flow conditions, PFA-100 Col/ADP test cartridge. Particulars: for Number of samples with closure times above the cut-off (n = 11): cut-off 115 seconds, ASA 30 μmol/L. As for the experimental part: (§1) Venous blood was taken from 11 healthy donors and anticoagulated with sodium citrate (3.2% buffered Na citrate).
(§2) Aliquots of the citrated whole blood sample were treated in vitro with the P2Y(12) antagonist MRS 2395 (Sigma-Aldrich Chemie GmbH, Steinheim, Germany). For this purpose an ethanolic MRS 2395 stock solution (15 mg/mL) was mixed with the whole blood samples so that an end concentration of 100 μmol/L was obtained.
(§3) Further aliquots of the citrated whole blood samples were treated in vitro with the COX-1 inhibitor acetylsalicylic acid (abbr.: ASA; Sigma-Aldrich Chemie GmbH, Steinheim, Germany). For this purpose an aqueous ASA stock solution (1 mg/mL) was mixed with whole blood samples so that an end concentration of 30 μmol/L was obtained.
(§4) After addition of the reagents the blood samples were incubated at room temperature for 5 minutes.
(§5) Venous blood was taken from healthy donors and anticoagulated with sodium citrate (3.2% buffered Na citrate). The closure time determination was carried out for each whole blood sample in the PFA-100® apparatus. Samples from 186 donors were determined in duplicate with a Col/Epi PFA-100® test cartridge [see Example 1d)] and a Col/ADP PFA-100® test cartridge [see Example 1d)].
(§6) The reference ranges (normal range) for the Col/Epi closure time and the Col/ADP closure time were established in that the measurement value ranges determined in which 90% of the measurement values for the healthy subjects were found (90% central interval of the normal distribution of all measurements). This gave the following reference ranges for the closure times:
(§7) The upper reference limit of the reference range was defined as cut-off, i.e. as threshold value, for a platelet dysfunction. If the closure time of a patient sample deviates from the reference range it can indicate a platelet dysfunction. This means Col/Epi closure times that are greater than 158 seconds and Col/ADP closure times that are greater than 115 seconds indicate the presence of a platelet dysfunction within the sense of a reduced aggregation efficiency.
(§8) To determine the closure time using a Col/Epi PFA-100® test cartridge (2 μg of collagen and 10 μg of epinephrine on the partition member; 150 μm aperture diameter; Dade Behring Marburg GmbH, Marburg, Germany) and using a Col/ADP PFA-100® test cartridge (2 μg of collagen and 50 μg of ADP on the partition member; 150 μm aperture diameter; Dade Behring Marburg GmbH, Marburg, Germany) as measure of platelet function, whole blood samples described in Example 1a) were investigated in a PFA-100® apparatus (Platelet Function Analyzer-100, Dade Behring Marburg GmbH, Marburg, Germany).
(§9) Aliquots of the samples described in 1a) were taken and mixed according to the invention either with prostaglandin E1 (abbr.: PGE1) or with forskolin (both purchased from Sigma-Aldrich Chemie GmbH, Steinheim, Germany) for activating intracellular adenylate cyclases. For this purpose, the samples were mixed with an ethanolic PGE1 stock solution (0.05 mg/mL) or with an ethanolic forskolin stock solution (5 mg/mL) to reach a final concentration of 12.5 nM PGE1 or a final concentration of 1 μM forskolin. Further aliquots of the samples described in 1a) were not mixed with an activator of intracellular adenylate cyclases and served as control.
(§10) Then in each case 800 μl of the blood samples mixed with PGE1 or forskolin, or of the control samples were put into the reservoir of a Col/Epi or Col/ADP test cartridge (+37° C.) and incubated in the apparatus at +37° C. for 3 minutes. A partial vacuum of −40 mbar was generated by the apparatus, thus sucking the blood out of the reservoir through the capillary (diameter 200 μm) and finally through the opening (aperture) of the partition member into the measurement chamber. The closure time was determined as the time required until the aperture was closed by formation of a blood clot. […]

Assay [2] shares this test system. Description: Closure time under flow conditions, PFA-100 Col/Epi test cartridge. The conditions noted are these: for Number of samples with closure times above the cut-off (n = 11): cut-off 158 seconds, ASA 30 μmol/L. As for the experimental part:
as §1, §2, §3, §4, §5, §6, §7, §8, §9, §10

Assay [3] has as its system platelet aggregation in platelet rich plasma. The experiment in a line: ADP induced light transmission aggregometry (according to Born). The conditions noted are these: 100 μmol/L MRS 2395 in vitro; PRP; 5 μM ADP. As for the experimental part: as §1, §2, §4
In order to check whether the samples treated with MRS 2395 actually show a reduced platelet aggregation, platelet rich (PRP) and platelet poor (PPP) plasma was prepared from aliquots of the untreated and MRS 2395-treated whole blood samples described under Example 1a). Then the samples were treated with 5 μM ADP. The PPP samples were used as blank controls. The photometric measurement of the aggregation reaction was carried out in the automated coagulation apparatus BCT® (Dade Behring Marburg GmbH, Marburg, Germany) under continuous stirring (600 rpm). The platelet aggregation of the samples treated with MRS 2395 was reduced by a mean of 27% compared with the platelet aggregation of the untreated samples.

Where [4] appears, read: +12.5 nM PGE1, MRS 2395 100 μmol/L.
[5] abbreviates: +1 μM forskolin, MRS 2395 100 μmol/L.
The mark [6] stands for this setting: +1 μM forskolin, MRS 2395 100 μmol/L, listed as ASA.
[7] abbreviates: Control (no activator), MRS 2395 100 μmol/L.
[8] abbreviates: normal untreated whole blood, 12.5 nM PGE1 or 1 μM forskolin.

`CC(=O)Oc1ccccc1C(=O)O` [Acetylsalicylic acid, acetylsalicylic acid]: the “Number of samples with closure times above the cut-off (n = 11)” value (“Number of samples” for short) is recorded as 4 in assay [1] (setting [4]); 0 in assay [1] (setting [5]); “none” in assay [1] (setting [6]); 1 in assay [1] (setting [7]); 11 in assay [2] (setting [4]); “all” in assay [2] (+12.5 nM PGE1, MRS 2395 100 μmol/L, listed as ASA). The “Number of samples” value in assay [2] (setting [5]) was 11; in assay [2] (setting [6]), “all”; in assay [2] (setting [7]), 8.

`CNc1nc(Cl)nc2c1ncn2CC(COC(=O)C(C)(C)C)COC(=O)C(C)(C)C` [MRS 2395, 2,2-dimethyl-propionic acid 3-(2-chloro-6-methylaminopurin-9-yl)-2-(2,2-dimethyl-propionyloxymethyl)-propyl ester]: the “Number of samples” value in assay [1] (setting [5]) is listed as 10; in assay [1] (setting [7]), 2; in assay [2] (setting [5]), 9; in assay [2] (setting [7]), 3. Besides, the “platelet aggregation reduced compared with the untreated samples (mean)” value in assay [3] was determined as 27%.

For the compound `CCCCC[C@H](O)/C=C/[C@H]1[C@H](O)CC(=O)[C@@H]1CCCCCCC(=O)O` [prostaglandin E1], the “prolongation of the closure times of the controls” value in assay [1] (setting [8]) is reported as “Neither the amount of forskolin used nor the amount of prostaglandin E1 used led to a significant prolongation”; in assay [2] (setting [8]), “significant prolongation”.
